Laboratory results reported in patent publication US7955815B2, “Two-photon fluorescent probes for acidic vesicles in live cells and tissue and method of imaging acidic vesicles in live cells and tissue using the same” (Korea University Industrial & Academic Collaboration …, priority 2007, dated 2011).
≈ marks a conversion by molar mass, not a printed value.

Columns and labels:
[1] = Fluorescence as a function of pH in universal buffer; pKa value analysis; assay type: physicochemical; conditions: for fluorescence intensity change with pH: pH gradually decreased; for pKa: universal buffer solution, from fluorescence intensity as a function of pH
Procedure: Each of the probes AH1 and AH2 was dissolved in a universal buffer solution (0.1 M citric acid, 0.1 M KH2PO4, 0.1 M Na2B4O7, 0.1 M Tris, 0.1 M KCl 10 mM).
The fluorescence intensities of the probes AH1 and AH2 were measured, and titration curves thereof were plotted (FIG. 9). In FIG. 9, Y-axis represents the fluorescence intensity enhancement factor [(F−Fo)/Fo] (F is the fluorescence intensity and Fo is the minimum fluorescence intensity).
The pKa values were estimated from the fluorescence intensity measured as a function of the pH by using the relationship 1: log [(Imax−I)/(I−Imin)]=pH−pKa (1)
wherein I represents the fluorescence intensity, and Imax and Imin represent the maximum and minimum fluorescence intensity, respectively.

[2] = Two-photon action cross section by fs fluorescence measurement, fluorescein as reference; assay type: physicochemical; conditions: 780 nm
Procedure: The two-photon cross section (δ) was determined by using femto second (fs) fluorescence measurement technique.
Specifically, each of the probes AH1, AH2, AL1 and LYSOTRACKER™ Red (DND-99) was dissolved in a universal buffer (pH=3.2) at a concentration of 5.0×10^−6 M and then the two-photon induced fluorescence intensity was measured at 740-940 nm by using fluorescein (8.0×10^−6 M, pH=11) as the reference, whose two-photon property has been well characterized.
The intensities of the two-photon induced fluorescence spectra of the reference and the sample probe were measured, and the two-photon cross section of the sample probe was calculated according to Equation 2: […]
wherein the subscripts s and r represent the sample probe and the reference, respectively, δ represents the two-photon cross section of the sample probe, and S represents the intensity of the signal collected by a detector, Φ represents the fluorescence quantum yield, φ represents the overall fluorescence collection efficiency of the experimental apparatus, c represents the number density of the molecules in solution, and δr represents the two-photon cross section of the reference.
The two-photon action cross section of the sample probe was calculated by multiplying the two-photon cross section by the quantum yield.

[3] = tested on: acidic vesicles in macrophages; test: Two-photon microscopy images of labeled macrophages, co-localized with LysoTracker Red OPM image; assay type: cell-based; conditions: TPM
Excerpt: TPM images of individual macrophages labeled with the probe AH2 of Example 2 were obtained (FIG. 3).
In contrast, the TPM images of the AH2-labeled macrophages emitted TPEF only at 500-620 nm (3b), and not at 360-460 nm (3a), which was attributed to the membrane-bound probe.
To unambiguously determine whether the intense red spots (3b) are indeed the acidic vesicles, the macrophages were stained With LYSOTRACKER™ Red (LTR), a well known one-photon fluorescent probe, and a one-photon micrography (OPM) image thereof was obtained (3c). The TPM image was co-localized with the OPM image (3d).
Acidic vesicles were imaged in the same manner as in Experimental Example 3-(1), except that the probe AH1 of Example 1 was used instead of the probe AH2 of Example 2.
Acidic vesicles were imaged in the same manner as in Experimental Example 3-(1), except that the probe AL1 of Example 3 was used instead of the probe AH2 of Example 2.

[4] = Water solubility from fluorescence intensity vs probe concentration; assay type: physicochemical; conditions: kinetic from dmso stock, H2O, 0.2% DMSO, read-out: solubility (maximum concentration in the linear region)
Procedure: Each of the probes AH1, AH2 and AL1 prepared in Examples 1-3 was dissolved in DMSO to prepare a stock solution (1.0×10^−3 M). The solution was diluted to […] and added to a cuvette containing 3.0 mL of H2O by using a micro syringe. In all cases, the concentration of DMSO in H2O was maintained to be 0.2%. The fluorescence intensity of the probe was measured as a function of the probe concentration.
Referring to FIG. 1, the fluorescence intensities of the probes increased in all wavelength bands with increasing probe concentration.
The plots (1b, 1d and 1f) have a profile in which the fluorescence intensity increases with increasing probe concentration.
Referring to the profile, the fluorescence intensity increases linearly until the dye concentration reaches a predetermined level. […] The maximum concentration in the linear region was taken as the solubility. The solubilities of the probes AH1, AH2, and AL1 were 5.0, 9.0, and 5.0 μM, respectively.

[5] = tested on: acidic vesicles in hippocampal slices; test: TPEF imaging of rat hippocampal slices
Procedure: Slices were prepared from the hippocampi of a 2-day-old rat. The hippocampal slices were cut into a thickness of 400 μm. The slices were incubated with the probes AH2 and AL1 (10-20 μM).
The slices were then washed and transferred to glass-bottomed dishes. The TPEF images of the slices were obtained.
40 TPM images were accumulated along the z-direction at the depth of ˜100-250 μm with magnification 10× (6b).

SMILES	fluorescence intensity change with pH [1]	pKa [1]	two-photon action cross section relative to LysoTracker Red [2] [fold]	imaging of acidic vesicles in macrophages (TPEF at 500-620 nm, merged with LTR image) [3]	solubility [4] [µM]	depth at which TPEF images were obtained ([5]; 400 μm hippocampal slices of 2-day-old rat, probe 10-20 μM) [μm]	imaging of transportation of acidic vesicles ([5]; acute rat hippocampal slice, CA3 region, depth ~120 μm, 10 μM)	two-photon action cross section (Φδ) ([2]; universal buffer pH 3.2, 5.0×10^−6 M) [GM]
CC(=O)c1ccc2cc(N(C)CC(=O)Nc3ccc(N)cc3)ccc2c1 [AH1]	increased dramatically around pH 4-5	4.42 ± 0.03	9	clearly capable of imaging the acidic vesicles	5 (≈ 1.74 µg/mL)			
COc1cc(NC(=O)CN(C)c2ccc3cc(C(C)=O)ccc3c2)ccc1N [AH2]	increased dramatically around pH 4-5	4.18 ± 0.01	9	clearly capable of imaging the acidic vesicles	9 (≈ 3.4 µg/mL)	250		
CC(=O)c1ccc2cc(N(C)CC(=O)NCCN(C)C)ccc2c1 [AL1]	maintained at a substantially constant level despite changes in acidity			clearly capable of imaging the acidic vesicles	5 (≈ 1.64 µg/mL)		can visualize the transportation of acidic vesicles in the CA3 region for a long period of time	
CN(C)CCNC(=O)CCc1ccc2n1[B-](F)(F)[N+]1=C(c3ccc[nH]3)C=CC1=C2 [LYSOTRACKER™ Red (LTR), reference compound]								~10
